Assay results published in the supplement of paper PMC10307832.

How the values were obtained:
Test in all cases: relative viability (nuclei count vs DMSO), 5 days (fraction); higher = more cells survive
[1] = compound: O=S(=O)(c1ccccc1)N(CC(F)(F)F)c1ccc(C(O)(C(F)(F)F)C(F)(F)F)cc1 + CC(=O)Nc1cccc(-n2c(=O)n(C3CC3)c(=O)c3c(Nc4ccc(I)cc4F)n(C)c(=O)c(C)c32)c1 [Trametinib] (partner 0.02 µM)
Procedure, shortened: (§1)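 Relative viability was taken as the ratio of nuclei in treated wells to nuclei in vehicle wells. Lung cancer cell lines in 1536-well plates received compounds by pin tool one day after seeding, either one drug alone or a fixed anchor-drug dose plus five library-drug doses (not always all listed) in √10 steps. Nuclei were counted on 4× images after 5 days of treatment, and values are medians of duplicate plates.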

[2] = compound: O=S(=O)(c1ccccc1)N(CC(F)(F)F)c1ccc(C(O)(C(F)(F)F)C(F)(F)F)cc1 + Nc1nc2[nH]cc(CCc3ccc(C(=O)N[C@@H](CCC(=O)O)C(=O)O)cc3)c2c(=O)[nH]1 [Pemetrexed] (partner 0.2 µM)
Procedure, shortened: as §1

RO-3306 + Alpelisib = compound: C1=CC2=C(C=CC(=C2)C=C3C(=O)NC(=NCC4=CC=CS4)S3)N=C1 [RO-3306] + Cc1nc(NC(=O)N2CCC[C@H]2C(N)=O)sc1-c1ccnc(C(C)(C)C(F)(F)F)c1 [Alpelisib] (partner 2 µM)
Procedure, shortened: as §1

RO-3306 + Linsitinib = compound: C1=CC2=C(C=CC(=C2)C=C3C(=O)NC(=NCC4=CC=CS4)S3)N=C1 [RO-3306] + C[C@]1(O)C[C@@H](c2nc(-c3ccc4ccc(-c5ccccc5)nc4c3)c3c(N)nccn32)C1 [Linsitinib] (partner 1 µM)
Procedure, shortened: as §1

| Cell Line | relative viability ([1]; first compound 0.8 µM) | relative viability ([1]; first compound 2.53 µM) | relative viability ([1]; first compound 8 µM) | relative viability ([2]; first compound 0.8 µM) | relative viability ([2]; first compound 2.53 µM) | relative viability ([2]; first compound 8 µM) | relative viability (RO-3306 + Alpelisib; first compound 0.01 µM) | relative viability (RO-3306 + Alpelisib; first compound 0.03162 µM) | relative viability (RO-3306 + Alpelisib; first compound 0.1 µM) | relative viability (RO-3306 + Alpelisib; first compound 0.3162 µM) | relative viability (RO-3306 + Alpelisib; first compound 1 µM) | relative viability (RO-3306 + Linsitinib; first compound 0.01 µM) | relative viability (RO-3306 + Linsitinib; first compound 0.03162 µM) | relative viability (RO-3306 + Linsitinib; first compound 0.1 µM) | relative viability (RO-3306 + Linsitinib; first compound 0.3162 µM) | relative viability (RO-3306 + Linsitinib; first compound 1 µM) |
| --- | --- | --- | --- | --- | --- | --- | --- | --- | --- | --- | --- | --- | --- | --- | --- | --- |
| H3255 | 0.623 | 0.565 | 0.649 | 0.602 | 0.526 | 0.502 | 0.576 | 0.59 | 0.632 | 0.628 | 0.6 | 1.17 | 0.814 | 1.01 | 0.918 | 0.945 |
| NCI-H1355 | 0.456 | 0.427 | 0.382 | 1.12 | 1.03 | 1.03 | 1 | 0.709 | 0.872 | 0.969 | 0.822 | 1.04 | 0.802 | 0.763 | 0.929 | 0.799 |
| HCC-366 | 0.469 | 0.335 | 0.23 | 0.16 | 0.182 | 0.174 | 0.377 | 0.347 | 0.389 | 0.503 | 0.34 | 0.531 | 0.405 | 0.594 | 0.886 | 0.569 |
| COR-L 105 | 0.39 | 0.424 | 0.382 | 1.34 | 1.06 | 0.988 | 1.36 | 0.835 | 1.06 | 1.09 | 0.998 | 1.08 | 0.912 | 0.923 | 1.08 | 0.861 |
| NCI-H2228 | 0.693 | 0.371 | 0.429 | 0.373 | 0.309 | 0.333 | 0.623 | 0.777 | 0.865 | 0.673 | 0.609 | 0.963 | 0.529 | 0.678 | 0.655 | 0.617 |
| NCI-H1437 | 0.538 | 0.36 | 0.432 | 0.324 | 0.308 | 0.326 | 1.05 | 0.868 | 0.999 | 1 | 0.929 | 1.15 | 0.673 | 0.945 | 1.03 | 1.1 |
| NCI-H1792 | 0.407 | 0.303 | 0.287 | 0.892 | 0.702 | 0.717 | 0.803 |  | 0.668 | 0.757 | 0.457 | 0.728 |  | 0.569 | 0.604 | 0.31 |
| LOU-NH91 | 0.919 | 0.844 | 0.914 | 0.424 | 0.434 | 0.35 | 0.7 | 0.705 | 0.764 | 0.708 | 0.671 | 0.982 | 0.899 | 0.982 | 0.864 | 0.899 |
| LC-2-ad | 0.881 | 0.884 | 0.758 | 0.274 | 0.286 | 0.244 | 1.07 | 0.832 | 0.846 | 0.887 | 0.812 | 0.902 | 0.757 | 0.813 | 0.833 | 0.817 |
| PC-3 [JPC-3] |  | 0.678 | 0.678 |  | 1.07 | 0.949 | 1.1 | 1 | 1.02 | 0.98 | 0.98 | 0.947 | 0.968 | 0.996 | 0.963 | 0.971 |
| NCI-H1734 | 0.711 | 0.65 | 0.664 | 0.438 | 0.431 | 0.422 | 0.687 | 0.595 | 0.697 | 0.726 | 0.719 | 1.05 | 0.578 | 0.823 | 0.891 | 0.836 |
| NCI-H520 | 0.861 | 0.603 | 0.701 | 0.757 | 0.908 | 0.795 | 0.992 | 0.811 | 0.838 | 0.854 | 0.836 | 1.05 | 0.872 | 0.82 | 1.2 | 0.824 |
| HOP-62 | 0.391 | 0.297 | 0.355 | 0.238 | 0.271 | 0.243 | 1.02 | 0.992 | 0.933 | 1.04 | 0.986 | 0.951 | 0.985 | 0.892 | 0.978 | 0.973 |
| NCI-H650 | 1.1 | 0.983 | 0.782 | 0.841 | 0.992 | 0.851 | 0.872 | 0.981 | 1.03 | 1.1 | 1.05 | 0.598 | 0.672 | 0.721 | 0.859 | 0.748 |
| NCI-H1993 | 0.554 | 0.457 | 0.478 | 0.616 | 0.533 | 0.614 |  | 0.657 | 0.712 | 0.589 | 0.666 |  | 0.711 | 0.678 | 0.732 | 0.695 |
| NCI-H2023 | 0.593 | 0.428 | 0.358 | 0.274 | 0.268 | 0.231 | 0.758 | 0.448 | 0.558 | 0.661 | 0.564 | 0.607 | 0.566 | 0.637 | 0.798 | 0.585 |
| NCI-H647 | 0.587 | 0.379 | 0.352 | 0.0949 | 0.156 | 0.164 | 1.76 | 0.954 | 1.09 | 1.16 | 1.28 | 1.43 | 1.07 | 1.21 | 1.29 | 1.07 |
| EPLC-272H | 0.274 | 0.289 | 0.269 | 0.361 | 0.41 | 0.376 | 0.927 | 0.79 | 0.909 | 0.829 | 0.972 | 1.2 | 0.768 | 1.24 | 1.04 | 0.96 |
